Assay results from patent US20050130909A1 (priority 2002, published 2005).
Several values for one entry are separate records, joined by “and”; a condition that tells them apart may be missing. Equal values may be shown once.

Key:
[1] = test system: skin and soft tissue infections (SSTI); test: Phase II SSTI trial: clinical response (success = cure or improvement); assay type: in vivo, human; settings: for Clinical success rate at FU, patients with MRSA: MITT population; for Clinical success rate, exploratory subanalysis: patients with deep or complicated SSTI at baseline
Experimental: (§1) This randomized, controlled study evaluated the safety and efficacy of two dose regimens of dalbavancin.
(§2) There were 62 patients randomized into the study; all received at least one dose of study medication. Four study populations were evaluated for safety and efficacy and were defined as follows: The intent-to-treat (ITT) population included all patients who received at least one dose of study drug (all randomized study subjects).
The effectiveness of the three treatment regimens was determined by assessing the patients' clinical response and the documented or presumed microbiological responses. The primary efficacy endpoint was clinical response at the follow-up visit for the clinically evaluable population. Clinical response, for both EOT and FU visits, was categorized as success (cure or improvement) or failure (including indeterminate results). Patients classified as successes must not have received additional systemic antibacterial treatment for their infection. Failure was defined as persistence of one or more local or systemic signs and symptoms of SSTI such that treatment with new or additional systemic antibacterial agents was required for the SSTI.

Gram-positive pathogen = test: Phase II SSTI trial: microbiological response, all Gram-positive pathogens; assay type: in vivo, human; settings: for Success rate by pathogen: Total organisms: MITT at FU; for Microbiologic success rate (by patient): MITT population; for Eradication/presumed eradication rate, all organisms: microbiologically-evaluable population at FU
Experimental: as §1, §2
Microbiological outcome, a secondary efficacy variable, was assessed in the subpopulation of patients who had microbiologically documented SSTI (i.e., at least one identified baseline pathogen). A microbiologic response was assessed for each Gram-positive pathogen identified at baseline (i.e., eradication, presumed eradication, persistence, presumed persistence). For patients for whom follow-up cultures were not performed, the microbiologic responses for baseline pathogens were presumed on the basis of the clinical response. Microbiologic response by patient at the EOT and FU visits was graded as success (i.e., all Gram-positive organisms eradicated or presumed eradicated) or failure (i.e., at least one Gram-positive organism persisted or presumed to have persisted, multiple pathogens with partial eradication). At both the EOT and FU visits, colonization and superinfection were assessed. At the FU visit, a patient's bacteriological response could also include recurrence.

[2] = Phase II SSTI trial: dalbavancin plasma concentrations; assay type: in vivo, human
[3] = Safety assessments in healthy subjects; assay type: in vivo, human
Experimental: Adverse events were recorded and assessed for severity and relationship to study drug. Laboratory data (chemistry panel, CBC with differential, urinalysis) were collected and assessed for changes from baseline and out-of-range values. ECG, physical examination, and vital signs were obtained, and changes from baseline were assessed.

human albumin = human albumin (Homo sapiens, UniProt P02768); test: Protein binding by isothermal titration microcalorimetry (ITC); settings: for Calculated percent Binding to Human albumin: albumin 6×10^−4 M assumed
bovine albumin = bovine albumin (Bos taurus, UniProt P02769); test: Protein binding by ITC; settings: 25° C.; pH 7.4
[4] = Rat quantitative tissue distribution study; assay type: in vivo, Sprague-Dawley rats
Experimental: Quantitative tissue distribution studies were conducted to assess the tissue distribution of dalbavancin following a single IV infusion of dalbavancin to male rats.
All samples were analyzed by LSC.

HSA = HSA (Homo sapiens, UniProt P02768); test: MALDI-TOF mass spectrometry of protein-dalbavancin complexes; assay type: binding; settings: ratios (1:2, 1:10)
Experimental: The samples were prepared for analysis using the dried droplet technique. Spectra were obtained on a BRUKER FLEX III, tof mass spectrometer previously tuned and calibrated using standard bovine serum albumin, acquiring and averaging spectra generated by 200 laser shots. Matrix: 9 parts of DHB-9 (2,5-dihydroxy-benzoic acid) saturated in acetonitrile/H2O (50:50), 1 part of sinapinic acid saturated in acetonitrile/H2O (50:50). 0.5 ul of sample solution and 0.5 ul of matrix solution were mixed and placed on the laser target.

dipeptide (D-Ala-D-Ala) = test: ITC, preliminary experiments; assay type: binding; settings: absence of serum proteins
staphylococci = test: In vitro antibacterial activity; assay type: cell-based; settings: including some teicoplanin-resistant strains
bacteria = settings: cited from earlier work
[5] = ESI-MS analysis of multimers in solution
Experimental: Experiments were performed using an Applied Biosystem API III+ mass spectrometer equipped with a TurboIonSpray source, a Triple Quadrupole analyzer, operating in positive ion mode.
The mass spectra were obtained in electrospray positive mode on a Finnigan LCQ^Deca ion trap instrument previously tuned and calibrated in electrospray mode using Ultramark 1621, caffeine and MRFA (L-metionyl-arginyl-phenilalanyl-arginine).

[6] = AE possibly related, upper limit of normal 40 IU/L
[7] = single 1000 mg IV dose, healthy subjects
[8] = six healthy volunteers, single 1000 mg IV

Chain of human albumin (P02768 25-609): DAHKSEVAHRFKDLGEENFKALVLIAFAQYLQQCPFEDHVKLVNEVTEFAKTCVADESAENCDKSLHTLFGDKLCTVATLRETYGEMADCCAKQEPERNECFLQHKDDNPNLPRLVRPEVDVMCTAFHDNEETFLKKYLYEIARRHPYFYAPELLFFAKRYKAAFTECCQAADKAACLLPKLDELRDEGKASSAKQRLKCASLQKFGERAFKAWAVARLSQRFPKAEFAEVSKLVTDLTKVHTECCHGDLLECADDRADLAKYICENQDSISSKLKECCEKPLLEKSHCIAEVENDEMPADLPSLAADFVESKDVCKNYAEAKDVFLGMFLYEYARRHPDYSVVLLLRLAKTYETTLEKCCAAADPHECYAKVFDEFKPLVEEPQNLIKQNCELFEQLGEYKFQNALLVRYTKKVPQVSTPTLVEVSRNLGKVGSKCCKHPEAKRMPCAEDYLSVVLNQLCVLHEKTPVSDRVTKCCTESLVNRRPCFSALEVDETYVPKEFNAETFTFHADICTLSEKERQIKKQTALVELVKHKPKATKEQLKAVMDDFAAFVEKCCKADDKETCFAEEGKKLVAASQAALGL
Chain of HSA (P02768 25-609): as above
Chain of bovine albumin (P02769 25-607): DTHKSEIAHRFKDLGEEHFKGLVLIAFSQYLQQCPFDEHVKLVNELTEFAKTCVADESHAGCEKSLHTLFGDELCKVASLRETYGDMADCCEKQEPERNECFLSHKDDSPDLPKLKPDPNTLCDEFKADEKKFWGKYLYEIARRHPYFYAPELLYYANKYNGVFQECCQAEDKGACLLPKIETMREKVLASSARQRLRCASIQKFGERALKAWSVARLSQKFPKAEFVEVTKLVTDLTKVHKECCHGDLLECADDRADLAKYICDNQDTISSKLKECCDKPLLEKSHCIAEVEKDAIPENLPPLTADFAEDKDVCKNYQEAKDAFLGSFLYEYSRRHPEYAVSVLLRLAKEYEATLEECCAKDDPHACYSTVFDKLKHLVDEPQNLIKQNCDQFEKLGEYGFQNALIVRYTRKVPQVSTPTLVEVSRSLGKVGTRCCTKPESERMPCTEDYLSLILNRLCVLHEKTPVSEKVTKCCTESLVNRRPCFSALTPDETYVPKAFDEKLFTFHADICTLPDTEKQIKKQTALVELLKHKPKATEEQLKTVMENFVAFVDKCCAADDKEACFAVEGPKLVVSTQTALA

In the case of `CN[C@H]1C(=O)N[C@@H]2Cc3ccc(cc3)Oc3cc4cc(c3O[C@@H]3O[C@H](C(=O)O)[C@@H](O)[C@H](O)[C@H]3NC(=O)CCCCCCCCC(C)C)Oc3ccc(cc3Cl)[C@@H](O)[C@@H]3NC(=O)[C@H](NC(=O)[C@@H]4NC(=O)[C@@H](NC2=O)c2cc(cc(O)c2Cl)Oc2cc1ccc2O)c1ccc(O)c(c1)-c1c(O[C@H]2O[C@H](CO)[C@@H](O)[C@H](O)[C@@H]2O)cc(O)cc1[C@@H](C(=O)NCCCN(C)C)NC3=O` [Dalbavancin], the Clinical success rate ([1]; Clinically evaluable at EOT, single-dose 1100 mg) is reported as 13/16 (61.5) %, the Clinical success rate ([1]; Clinically evaluable at EOT, two-dose 1000/500 mg) is reported as 16/17 (94.1) % and the Clinical success rate ([1]; ITT at EOT, single-dose dalbavancin 1100 mg IV day 1) is reported as 15/20 (75.0) %. The Clinical success rate ([1]; ITT at EOT, two-dose dalbavancin 1000 mg day 1 + 500 mg day 8 IV) was 19/21 (90.5) %, the Clinical success rate ([1]; ITT at FU, single-dose 1100 mg) was 12/20 (60.0) % and the Clinical success rate ([1]; ITT at FU, two-dose 1000/500 mg) was 19/21 (90.5) %. For the same compound, the Clinical success rate ([1]; MITT at EOT, single-dose 1100 mg) was 10/14 (71.4) %, the Clinical success rate ([1]; MITT at EOT, two-dose 1000/500 mg) was 12/13 (92.3) % and the Clinical success rate ([1]; MITT at FU, single-dose 1100 mg) was 7/14 (50.0) %. The Clinical success rate ([1]; MITT at FU, two-dose 1000/500 mg) was 12/13 (92.3) %, the “Clinical success rate at FU, patients with MRSA” value ([1]; single-dose dalbavancin) was 50% and the “Clinical success rate at FU, patients with MRSA” value ([1]; two-dose dalbavancin) was 80%. The Clinical success rate ([1]; Microbiologically evaluable at EOT, single-dose 1100 mg) was 10/13 (76.9) %, the Clinical success rate ([1]; Microbiologically evaluable at EOT, two-dose 1000/500 mg) was 10/11 (90.9) % and the Clinical success rate ([1]; Microbiologically evaluable at FU, single-dose 1100 mg) was 6/11 (54.5) %. The Clinical success rate ([1]; Microbiologically evaluable at FU, two-dose 1000/500 mg) was 10/11 (90.9) %, the “Clinical success rate, exploratory subanalysis” value ([1]; single-dose dalbavancin) was 58.3% and the “Clinical success rate, exploratory subanalysis” value ([1]; two-dose dalbavancin) was 93.8%. The “Success rate by pathogen: Total organisms” value (Gram-positive pathogen; single-dose 1100 mg) was 7/16 (43.8%), the “Success rate by pathogen: Total organisms” value (Gram-positive pathogen; two-dose 1000/500 mg) was 14/16 (87.5%) and the “Microbiologic success rate (by patient)” value (Gram-positive pathogen; EOT, single-dose 1100 mg) was 5/14 (35.7) %. The “Microbiologic success rate (by patient)” value (Gram-positive pathogen; EOT, two-dose 1000/500 mg) was 10/13 (76.9) %, the “Microbiologic success rate (by patient)” value (Gram-positive pathogen; FU, single-dose 1100 mg) was 3/14 (21.4) % and the “Microbiologic success rate (by patient)” value (Gram-positive pathogen; FU, two-dose 1000/500 mg) was 9/13 (69.2) %. For the same compound, the “Microbiologic success rates, summary over both visits (EOT, FU)” value (Gram-positive pathogen; microbiologically-evaluable and MITT populations, single dose of dalbavancin) was under 40%, the “Eradication/presumed eradication rate, all organisms” value (Gram-positive pathogen; single-dose dalbavancin) was 58.3% and 58% and the “Eradication/presumed eradication rate, all organisms” value (Gram-positive pathogen; two-dose dalbavancin) was 92.3% and 92%. For the same compound, the “Dalbavancin plasma level maintained” value ([2]; additional week, with an additional dose of 500 mg IV on day 8) was “greater than 20 mg/l”, the “Mean dalbavancin plasma concentration (mean±SD)” value ([2]; single-dose regimen 1100 mg IV, Study day 8) was 31.1 ± 7.1 mg/L and the “Mean dalbavancin plasma concentration (mean±SD)” value ([2]; single-dose regimen, Study day 10) was 25.2 ± 4.8 mg/L. The “Mean dalbavancin plasma concentration (mean±SD)” value ([2]; single-dose regimen, Study day 24) was 10.2 ± 3.5 mg/L, the “Dalbavancin plasma concentration, all patients” value ([2]; through the first week following the first dose) was “greater than 20 mg/l” and the “Mean dalbavancin plasma concentration (mean±SD)” value ([2]; two-dose regimen 1000/500 mg IV, Study day 8 (prior to the second dose)) was 30.4 ± 8.2 mg/L. For the same compound, the “Mean dalbavancin plasma concentration (mean±SD)” value ([2]; two-dose regimen, Study day 20) was 21.2 ± 10.0 mg/L, the “Mean dalbavancin plasma concentration (mean±SD)” value ([2]; two-dose regimen, Study day 34) was 9.0 ± 4.4 mg/L and the “Eosinophilia, individual subject value” ([3]; AE possibly related, upper limit of normal 0.4×10^3/μL) was 500 µL⁻¹. For the same compound, the “Elevated ALT, individual subject value” [3, 6] was 46 IU/L and 54 IU/L, the “Elevated AST, individual subject value” [3, 6] was 42 IU/L and the “Elevated LDH, individual subject value” ([3]; AE possibly related, upper limit of normal 90 IU/L) was 303 IU/L. The “Post-baseline hematology, chemistry, vital signs, and ECG” value ([3]; single 1000 mg IV) was “No trends were seen”, the “Deaths or serious adverse events” value [3, 7] was “No subject deaths or serious adverse events were reported” and the Tolerability [3, 7] was “well-tolerated”. For the same compound, the “AEs possibly related to study medication” value [3, 8] was “Three volunteers reported AEs that were possibly related to study medication”, the “Adverse events, incidence and intensity” value [3, 8] was “All volunteers reported at least one AE, all of mild intensity” and the “Apparent binding affinity Ka” value (human albumin; 37° C., pH 7.4) was 1.33 (±0.15) ×10^5 M^−1. For the same compound, the “Binding stoichiometry N (protein to dalbavancin)” value (human albumin; ITC fit, in all cases (all proteins tested), FIG. 2) was under 1, the “Binding to human serum albumin” value (human albumin; across 1-500 μM dalbavancin) was “exceeds 98%” and the “Calculated percent Binding to Human albumin” value (“Calculated percent Binding” below) (human albumin; antibiotic 1 μM) was 98.8%. The “Calculated percent Binding” value (human albumin; antibiotic 10 μM) was 98.8%, the “Calculated percent Binding” value (human albumin; antibiotic 100 μM) was 98.7% and the “Calculated percent Binding” value (human albumin; antibiotic 165 μM) was 98.6%. For the same compound, the “Calculated percent Binding” value (human albumin; antibiotic 250 μM) was 98.5%, the “Calculated percent Binding” value (human albumin; antibiotic 500 μM) was 98.0% and the “Binding stoichiometry antibiotic:protein” value (human albumin; binding stoichiometry modeling of ITC data) was “two dalbavancin molecules are bound to one molecule of protein”. The Free fraction (human albumin; human) was about 1%, the “Apparent binding affinity Ka” value (bovine albumin) was 1.38 (±0.14) ×10^5 M^−1 and the “Dose recovered in the bile” value ([4]; bile duct cannulated rats, over 384 h after the dose) was ~11 % of the dose. For the same compound, the “Concentrations of radioactivity in the CNS” value ([4]; healthy rats) was “low but detectable”, the “Time by which all tissues had quantifiable drug-derived radioactivity” value ([4]; male rats, single IV infusion 20 mg/kg) was at most 12 h and the “Skin penetration: drug-derived radioactivity in skin relative to plasma” value ([4]; rats) was “as high as or higher than in plasma”. The Tissue accumulation ([4]; rats, through 70 days) was “did not accumulate in any single tissue, organ, or blood cellular component”, the “Complex with HSA at very high dalbavancin to protein ratios” value (HSA) was “complexes containing 2 molecules of dalbavancin per protein molecule can be observed” and the “Binding to dipeptide (D-Ala-D-Ala)” value (dipeptide (D-Ala-D-Ala)) was “no evidence of binding”. For the same compound, the “In vitro activity relative to teicoplanin and vancomycin” value (staphylococci) was “more active in vitro against staphylococci (including some teicoplanin-resistant strains) than teicoplanin and vancomycin”, the “Concentrations known to be bactericidal” value (bacteria) was 4 to 32 mg/L and the “Population ratio of multimer to monomer: influence of ionic strength” value ([5]; 100 μg/mL, ammonium formate 5, 50, 100 mM pH 5, FIGS. 6-8) was “decrease in dalbavancin multimer to monomer population ratio”. For the same compound, the “Population ratio of multimer to monomer: influence of concentration” value ([5]; 20, 40, 60, and 80 μg/mL, FIG. 4) was “increases with increasing concentration”, the Multimers in solution ([5]; dalbavancin 0.1 mg/ml in 8:2 water:isopropanol, teicoplanin 50 and 100 μg/mL in water) was “indicates the presence of dalbavancin multimers” and the “Population ratio of multimer to monomer: influence of pH” value ([5]; pH 2.5 to 5.5, FIG. 5) was “increases with increasing pH”.
